The results in this text go back to patent publication US8399683B2 (TetraLogic Pharmaceuticals, priority 2008, dated 2013).

The target of one assay is cIAP-1 BIR-3 (Homo sapiens, UniProt Q13490). Put plainly: Fluorescence polarization binding affinity to cIAP-1 BIR-3 (competition with AbuRPF-K(5-Fam)-NH2). The following applies: 5 nM labeled peptide, 40 nM BIR3, 15 min at RT, pH 7.5; reported as ranges; read-out: KD (c-IAP-1 BIR3). The procedure:
(§1) The binding affinities of the compounds are reported as a KD value (μM). Briefly, various concentrations of test peptides were mixed with 5 nM of the fluorescently labeled peptide (i.e., a mutated N-terminal Smac peptide—AbuRPF-K(5-Fam)-NH2) and 40 nM of the respective IAP BIR3 for 15 min at RT in […] of 0.1M Potassium Phosphate buffer, pH 7.5 containing […] bovine g-globulin. Following incubation, the polarization values (mP) were measured on a Victor2V (available from PerkinElmer Life Sciences) using a 485 nm excitation filter and a 520 nm emission filter. The reported KD values are supplied as ranges (A=<0.1 μM, B=0.1 μM to 1 μM, C>1 μM to 10 μM, D=>10 μM).
In general terms: In fluorescence polarisation assays a small probe gives low polarisation when free and higher when bound to something large.

A further assay relates to SK-OV-3 cells. Put plainly: Growth inhibition of ovarian cancer cell line SK-OV-3 (MTT assay, cell survival). The class given is cell-based. As to conditions: Homo sapiens, drug concentration that results in 50% cell survival, 72 hrs incubation, reported as ranges. On the procedure: Compounds of the invention also were tested for their ability to inhibit the growth of an ovarian cancer cell line, SK-OV-3. A known assay previously used for measuring cell growth (as described in Hansen, M. B., Nielsen, S. E., and Berg, K. (1989) J. Immunol. Methods 119, 203-210 and incorporated herein by reference in its entirety) was used. Briefly, SK-OV-3 cells are seeded in 96-well plates in McCoy's medium containing 10% fetal bovine serum albumin (5,000 per well) and incubated overnight at 37° C. The next day, test compounds are added at various concentrations (0.003-10 μM) and the plates are incubated at 37° C. for an additional 72 hrs. This incubation time was considered to be optimal for measuring inhibitory effects of the different compounds tested. 50 microliters of 5 mg/mL MTT reagent is added to each well and the plates are incubated at 37° C. for another three (3) hours. At the end of the three (3) hour incubation period, 50 microliters of DMSO is added to each well to dissolve cells and the optical density (OD) of the wells is measured with a microplate reader (Victor^2 1420, Wallac, Finland) at 535 nm. Cell survival (CS) was calculated using the following equation: CS=(OD treated well/mean OD control wells)×100%.
The CC50 (reported in the following tables), is defined as the drug concentration that results in 50% cell survival (CS), and is derived by calculating the point where the dose-response curve crosses the 50% CS point using GraphPad Prism. The reported CC50 values are supplied as ranges (A=<0.1 μM, B=0.1 μM to 1 μM, C=>1 μM to 10 μM, D=>10 μM).
For orientation: Tetrazolium dyes change colour on reduction, which living cells bring about.

For a further assay, the target named is T1, XIAP BIR-3 (Homo sapiens, UniProt P98170).
T1 construct: 40 nM of the respective IAP BIR3
Put plainly: Fluorescence polarization binding affinity to XIAP BIR-3 (competition with AbuRPF-K(5-Fam)-NH2). The following applies: 5 nM labeled peptide, 40 nM BIR3, 15 min at RT, pH 7.5; reported as ranges. On the procedure: as §1

T1 sequence (P98170 241-356 limits assumed): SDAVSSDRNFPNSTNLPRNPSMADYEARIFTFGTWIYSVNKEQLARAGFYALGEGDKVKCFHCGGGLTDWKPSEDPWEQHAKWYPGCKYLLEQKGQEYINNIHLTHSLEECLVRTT
Sequence of cIAP-1 BIR-3 (Q13490 266-352 limits assumed): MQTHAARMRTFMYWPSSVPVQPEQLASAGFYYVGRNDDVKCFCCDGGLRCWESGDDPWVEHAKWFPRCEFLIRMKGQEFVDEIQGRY

Broadly, the Kd is the free concentration of one partner at which half of the binding sites on the other are occupied at equilibrium, for simple one-to-one binding. Usually CC50 stands for the concentration giving 50% cytotoxicity. High values mean lower toxicity to the cells, low ones greater toxicity to the cells. Turning to `CN[C@@H](C)C(=O)N[C@H](C(=O)N1CC[C@@H]2[C@H]1[C@@H](c1c[nH]c3cc(F)ccc13)CN2C(C)C)C1CCCCC1` [Example 19, N-{1-Cyclohexyl-2-[6-(6-fluoro-1H-indol-3-yl)-4-isopropyl-hexahydro-pyrrolo[3,2-b]pyrrol-1-yl]-2-oxo-ethyl}-2-methylamino-propionamide], the figures for the Kd at cIAP-1 BIR-3 and on XIAP BIR-3 were under 100 nM and 1000 to 10000 nM, respectively. The CC50 in the assay with SK-OV-3 cells lay in the range of 100 to 1000 nM.

`CN[C@@H](C)C(=O)N[C@H](C(=O)N1CC[C@@H]2[C@H]1[C@@H](c1c[nH]c3cc(F)ccc13)CN2C1CCCCC1)C1CCCCC1` [Example 20, N-{1-Cyclohexyl-2-[4-cyclohexyl-6-(6-fluoro-1H-indol-3-yl)-hexahydro-pyrrolo[3,2-b]pyrrol-1-yl]-2-oxo-ethyl}-2-methylamino-propionamide]: the Kd on cIAP-1 BIR-3 and at XIAP BIR-3 was under 100 nM each time. The CC50 in the assay with SK-OV-3 cells fell in the range of 100 to 1000 nM.

Take `CN[C@@H](C)C(=O)N[C@H](C(=O)N1CC[C@@H]2[C@H]1[C@@H](c1c[nH]c3cc(F)ccc13)CN2C1CCNCC1)C1CCCCC1` [Example 21, N-{1-Cyclohexyl-2-[6-(6-fluoro-1H-indol-3-yl)-4-piperidin-4-yl-hexahydro-pyrrolo[3,2-b]pyrrol-1-yl]-2-oxo-ethyl}-2-methylamino-propionamide]: the Kd was under 100 nM at cIAP-1 BIR-3 and 100 to 1000 nM at XIAP BIR-3. Moreover, the CC50 with SK-OV-3 cells is over 10000 nM.

As to `CN[C@@H](C)C(=O)N[C@H](C(=O)N1CC[C@@H]2[C@H]1[C@@H](c1c[nH]c3cc(F)ccc13)CN2C1CCN(C)CC1)C1CCCCC1` [Example 22, N-{1-Cyclohexyl-2-[6-(6-fluoro-1H-indol-3-yl)-4-(1-methyl-piperidin-4-yl)-hexahydro-pyrrolo[3,2-b]pyrrol-1-yl]-2-oxo-ethyl}-2-methylamino-propionamide], the results for the Kd at cIAP-1 BIR-3 and at XIAP BIR-3 were under 100 nM and 100 to 1000 nM, respectively. Also, the CC50 in the assay with SK-OV-3 cells was 100 to 1000 nM.

As to `CN[C@@H](C)C(=O)N[C@H](C(=O)N1CC[C@@H]2[C@H]1[C@@H](c1c[nH]c3cc(F)ccc13)CN2Cc1ncc(C)s1)C1CCCCC1` [Example 23, N-{1-Cyclohexyl-2-[6-(6-fluoro-1H-indol-3-yl)-4-(5-methyl-thiazol-2-ylmethyl)-hexahydro-pyrrolo[3,2-b]pyrrol-1-yl]-2-oxo-ethyl}-2-methylamino-propionamide], the Kd on cIAP-1 BIR-3 and at XIAP BIR-3 was under 100 nM in each case. In the assay on SK-OV-3 cells, this compound showed a CC50 of under 100 nM.

Turning to `CN[C@@H](C)C(=O)N[C@H](C(=O)N1CC[C@@H]2[C@H]1[C@@H](c1c[nH]c3cc(F)ccc13)CN2Cc1ccccn1)C1CCCCC1` [Example 24, N-{1-Cyclohexyl-2-[6-(6-fluoro-1H-indol-3-yl)-4-pyridin-2-ylmethyl-hexahydro-pyrrolo[3,2-b]pyrrol-1-yl]-2-oxo-ethyl}-2-methylamino-propionamide], the Kd at cIAP-1 BIR-3 and on XIAP BIR-3 was under 100 nM each time. In the assay on SK-OV-3 cells, this compound displayed a CC50 of under 100 nM.

With `CN[C@@H](C)C(=O)N[C@H](C(=O)N1CC[C@@H]2[C@H]1[C@@H](c1c[nH]c3cc(F)ccc13)CN2Cc1cccnc1)C1CCCCC1` [Example 25, N-{1-Cyclohexyl-2-[6-(6-fluoro-1H-indol-3-yl)-4-pyridin-3-ylmethyl-hexahydro-pyrrolo[3,2-b]pyrrol-1-yl]-2-oxo-ethyl}-2-methylamino-propionamide], the Kd on cIAP-1 BIR-3 and at XIAP BIR-3 was under 100 nM each time. The compound further registered a CC50 in the assay with SK-OV-3 cells of 100 to 1000 nM.

Take `CN[C@@H](C)C(=O)N[C@H](C(=O)N1CC[C@@H]2[C@H]1[C@@H](c1c[nH]c3cc(F)ccc13)CN2Cc1ccncc1)C1CCCCC1` [Example 26, N-{1-Cyclohexyl-2-[6-(6-fluoro-1H-indol-3-yl)-4-pyridin-4-ylmethyl-hexahydro-pyrrolo[3,2-b]pyrrol-1-yl]-2-oxo-ethyl}-2-methylamino-propionamide]: the Kd at cIAP-1 BIR-3 and on XIAP BIR-3 was under 100 nM each time. The compound further had a half-maximal cytotoxic concentration (CC50) in the assay on SK-OV-3 cells of under 100 nM.

Turning to `CN[C@@H](C)C(=O)N[C@H](C(=O)N1CC[C@@H]2[C@H]1[C@@H](c1c[nH]c3cc(F)ccc13)CN2Cc1nccn1C)C1CCCCC1` [Example 27, N-{1-Cyclohexyl-2-[6-(6-fluoro-1H-indol-3-yl)-4-(1-methyl-1H-imidazol-2-ylmethyl)-hexahydro-pyrrolo[3,2-b]pyrrol-1-yl]-2-oxo-ethyl}-2-methylamino-propionamide], the Kd at cIAP-1 BIR-3 and at XIAP BIR-3 was under 100 nM throughout. Besides, the CC50 in the assay with SK-OV-3 cells was in the range of 1000 to 10000 nM.

For the compound `CN[C@@H](C)C(=O)N[C@H](C(=O)N1CC[C@H]2NC[C@H](c3c[nH]c4cc(F)ccc34)[C@H]21)[C@@H](C)O` [Example 28, N-{1-[6-(6-Fluoro-1H-indol-3-yl)-hexahydro-pyrrolo[3,2-b]pyrrole-1-carbonyl]-2-hydroxy-propyl}-2-methylamino-propionamide], the Kd at cIAP-1 BIR-3 is under 100 nM; at XIAP BIR-3, 100 to 1000 nM. The CC50 in the assay on SK-OV-3 cells lay in the range of 1000 to 10000 nM.

Regarding `CC[C@H](NC(=O)[C@H](C)NC)C(=O)N1CC[C@H]2NC[C@H](c3c[nH]c4cc(F)ccc34)[C@H]21` [Example 29, N-{1-[6-(6-Fluoro-1H-indol-3-yl)-hexahydro-pyrrolo[3,2-b]pyrrole-1-carbonyl]-propyl}-2-methylamino-propionamide], the Kd at cIAP-1 BIR-3 and at XIAP BIR-3 was under 100 nM throughout. Also, the CC50 in the assay on SK-OV-3 cells is 100 to 1000 nM.

Turning to `CN[C@@H](C)C(=O)N[C@H](C(=O)N1CC[C@H]2NC[C@H](c3c[nH]c4cc(F)ccc34)[C@H]21)C(C)C` [Example 30, N-{1-[6-(6-Fluoro-1H-indol-3-yl)-hexahydro-pyrrolo[3,2-b]pyrrole-1-carbonyl]-2-methyl-propyl}-2-methylamino-propionamide], the Kd on cIAP-1 BIR-3 and on XIAP BIR-3 was under 100 nM each time. Also, the CC50 with SK-OV-3 cells is under 100 nM.

Consider `CN[C@@H](C)C(=O)N[C@H](C(=O)N1CC[C@H]2NC[C@H](c3c[nH]c4cc(F)ccc34)[C@H]21)C(C)(C)C` [Example 31, N-{1-[6-(6-Fluoro-1H-indol-3-yl)-hexahydro-pyrrolo[3,2-b]pyrrole-1-carbonyl]-2,2-dimethyl-propyl}-2-methylamino-propionamide], for which the results for the Kd on cIAP-1 BIR-3 and at XIAP BIR-3 were under 100 nM and 100 to 1000 nM, respectively. For the same compound, the CC50 in the assay on SK-OV-3 cells was under 100 nM.

Consider `CN[C@@H](C)C(=O)N[C@H](C(=O)N1CC[C@H]2NC[C@H](c3c[nH]c4cc(F)ccc34)[C@H]21)C1CCCCC1` [Example 32, N-{1-Cyclohexyl-2-[6-(6-fluoro-1H-indol-3-yl)-hexahydro-pyrrolo[3,2-b]pyrrol-1-yl]-2-oxo-ethyl}-2-methylamino-propionamide], for which the Kd on cIAP-1 BIR-3 and at XIAP BIR-3 was under 100 nM throughout. Moreover, the CC50 in the assay on SK-OV-3 cells was under 100 nM.

As for `CN[C@@H](C)C(=O)N[C@@H](CO)C(=O)N1CC[C@H]2NC[C@H](c3c[nH]c4cc(F)ccc34)[C@H]21` [Example 33, N-{2-[6-(6-Fluoro-1H-indol-3-yl)-hexahydro-pyrrolo[3,2-b]pyrrol-1-yl]-1-hydroxymethyl-2-oxo-ethyl}-2-methylamino-propionamide], the Kd at cIAP-1 BIR-3 and on XIAP BIR-3 was under 100 nM throughout. This compound also yielded a CC50 in the assay with SK-OV-3 cells of 1000 to 10000 nM.
